Structures can show the parent of a compound that is named as a salt.
Key:
[1] = tested on: Caco-2 cell line; experiment: Caco 2 model (transport through Caco-2 monolayers, absorbed fraction); format: in vitro ADME; conditions: apical to basolateral, pH 7.8, 37° C., test concentration 1 mM / 100 μM, from Papp via sigmoidal calibration curve
Protocol: The Caco-2 cell line was acquired from the American Type Culture Collection (ATCC) and maintained in Dulbecco's Modified Eagle medium (high glucose content), supplemented with nonessential amino acids, L-glutamine, penicillin/streptomycin, and 10% strength fetal calf serum. The Caco-2 cell line was then kept in an incubator under a 10% strength CO2 atmosphere at 95% strength relative humidity and 37° C. The cells were grown in cell culture flasks (175 cm^2). For the transport investigations, the Caco-2 cells were inoculated into polycarbonate cell culture inserts (costar Transwells®, pore size: 3 μm, area: 4.71 cm^2) at a cell density of 6.5×10^4 cells/cm^2 and incubated in six-well culture plates with a change of medium after 4 and 8 days and then every second day thereafter. 21 to 25 day-old monolayers were used for the experiments.
In each test series, a 21 day-old monolayer was tested for its properties with ^3H-dextran as a permeability marker. The value of the transfer rate (cumulative) had to be in the range of 2% after 120 min.
After eliminating the growth medium from the apical and the basolateral side, the monolayers were rinsed with the transport buffer (Hank's balanced salt solution, pH 7.8; containing 2.8 g/l glucose).The cells were then equilibrated for 15 min at 37° C. under a 10% strength C02 atmosphere. The HBSS buffer was then removed. The test compounds were dissolved in a mixture of HBSS buffer and DMSO and added to the apical buffer such that a 1% strength (v/v) DMSO solution resulted. The test concentration in the first experiment was 1 mM, and 100 μM in the second. The experiments were carried out at 37° C. and started by the addition of 1.5 ml of test solution to the donor side (apical). Transport buffer without compound was added to the recipient side (basolateral, 2.5 ml). At various points in time, samples were taken from the basolateral side (1 ml) and replaced by fresh buffer solution at 37° C. […]
The compounds were analyzed by means of HPLC.
The apparent permeability coefficient (Papp) was calculated by means of the following equation: [formula]
wherein dc/dt is the flow through the monolayer (μg of compound/ml x s), V is the liquid volume in the collection chamber (ml), A is the surface area size of the monolayer (cm^2) and c0 is the initial concentration (μg of compound/ml) in the donor chamber. The flow through the monolayer was calculated from the cumulative basolateral concentration at the appropriate point in time with the aid of the initially linear data curve (linear up to 60 min). The respective determinations were made in triplicate, such that the calculated Papp value represents the mean of three measurements. […]

[2] = target: T1, Rat NHE3 (Rattus norvegicus, UniProt P26433); experiment: NHE activity measurement (pHi recovery after acid load, transfected LAP1 cells); format: cell-based; conditions: stably transfected LAP1 cells, pH recovery recorded for 3 minutes, BCECF
T1 construct: expressed in transfected cells; host or cells: LAP1 (NHE-deficient cell line), stably transfected with pMAMneo plasmid
Source text: In the context of our studies, stably transfected cell lines were produced that in each case expressed one of the following NHE subtypes: Human NHE1 (Sardet et al. Cell 56:271-280 (1989)), rabbit NHE2 (Tse et al.; J. Biol. Chem. 268:11917-11924 (1993)), human NHE3 (Brant et al. Am. J. Physiol. 269 (Cell Physiol. 38) C198-C206 (1995)), or rat NHE3 (Orlowski et al.; J. Biol. Chem. 267:9331-9339 (1992)).
The cDNA clones of the respective NHE subtypes obtained by Prof. Pouyssegur were, after addition of suitable linker sequences, cloned into the expression plasmid pMAMneo (obtainable, for example, via CLONTECH, Heidelberg) such that the recognition sequence for the restriction endonuclease Nhel of the plasmid was approximately 20-100 Basepairs before the start codon of the respective NHE subtype and that the total coding sequence was present in the construct. In the case of the human NHE3 obtained from human kidney mRNA by means of RT-PCR, the RT-PCR primers were selected such that the cDNA band obtained had cleavage sites suitable for pMAMneo at its ends.
Using the “calcium phosphate method” (described in chapter 9.1 of “Current Protocols in Molecular Biology”), the NHE-deficient cell line LAP1 (Franchi et al.; Proc. Natl. Acad. Sci. USA 83:9388-9392 (1986)) was transfected with the plasmids that received the respective coding sequences of the NHE subtypes. […]
In this test, the recovery of the intracellular pH (pHi) after an acidification, which in the case of functional NHE occurs even under bicarbonate-free conditions, was determined. For this, the pHi was determined using the pH-sensitive fluorescent dye BCECF (Calbiochem, where the precursor BCECF-AM is employed). […] The BCECF fluorescence was determined in a “Ratio Fluorescence Spectrometer” (Photon Technology International, South Brunswick, N.J., USA) at excitation wavelengths of 505 and 440 nm and an emission wavelength of 535 nm and converted into the pHi by means of calibration curves. […]

[3] = tested on: NHE3; conditions: NHE3 inhibitor; cited from earlier work

T1 sequence (P26433 29-831): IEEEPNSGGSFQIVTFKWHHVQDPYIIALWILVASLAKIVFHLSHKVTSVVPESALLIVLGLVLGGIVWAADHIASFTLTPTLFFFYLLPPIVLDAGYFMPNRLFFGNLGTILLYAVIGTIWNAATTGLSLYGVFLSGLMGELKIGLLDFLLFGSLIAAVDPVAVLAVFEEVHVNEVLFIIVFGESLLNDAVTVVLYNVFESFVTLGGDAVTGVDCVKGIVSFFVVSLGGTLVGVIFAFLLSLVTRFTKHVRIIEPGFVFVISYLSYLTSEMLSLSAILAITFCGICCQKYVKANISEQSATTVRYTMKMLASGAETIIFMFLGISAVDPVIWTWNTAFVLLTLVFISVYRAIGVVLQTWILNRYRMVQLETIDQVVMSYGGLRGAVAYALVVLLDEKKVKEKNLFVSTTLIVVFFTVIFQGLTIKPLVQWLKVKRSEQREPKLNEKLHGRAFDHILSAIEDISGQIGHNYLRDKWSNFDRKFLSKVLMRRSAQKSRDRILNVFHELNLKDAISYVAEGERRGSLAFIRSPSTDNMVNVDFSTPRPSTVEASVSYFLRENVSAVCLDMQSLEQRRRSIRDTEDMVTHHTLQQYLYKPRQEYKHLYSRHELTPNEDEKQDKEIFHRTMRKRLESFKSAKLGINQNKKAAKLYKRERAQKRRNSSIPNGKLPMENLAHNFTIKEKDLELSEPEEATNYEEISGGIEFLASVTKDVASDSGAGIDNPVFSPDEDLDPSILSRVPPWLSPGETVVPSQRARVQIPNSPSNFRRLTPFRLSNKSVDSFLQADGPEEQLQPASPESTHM

Structure (SMILES)	Absorbed fraction [1] [%]	IC50 [2] [nM]	also measured
c1cncc(CN[C@@H]2C[C@@H]3C[C@H]2[C@@H]2CCCC[C@H]32)c1 (as salt: hydrochloride) [Example 8, exo/endo-(decahydro-1,4-methanonaphthalen-2-yl)-pyridin-3-ylmethyl-amine Hydrochloride]	–	–	melting point: 283 to 285 °C
c1cncc(CN[C@@H]2C[C@@H]3C[C@H]2[C@@H]2CCC[C@H]32)c1 (racemic) [Example 1, (rac)-exo/endo-(octahydro-4,7-methanoinden-5-yl)pyridin-3-ylmethylamine Hydrochloride]	100	340	–
c1cnc(CN[C@@H]2C[C@@H]3C[C@H]2[C@@H]2CCC[C@H]32)cn1 (racemic) [Example 18]	100	–	–
c1cncc(CN[C@@H]2C[C@@H]3C[C@H]2[C@H]2CCC[C@@H]32)c1 (relative stereo) [Example 6, exo/exo-(octahydro-4,7-methanoinden-5-yl)-pyridin-3-ylmethylamine Hydrochloride]	–	2100	–
c1csc(CN[C@@H]2C[C@@H]3C[C@H]2[C@@H]2CCC[C@H]32)c1 [Example 5, exo/endo-(octahydro-4,7-methanoinden-5-yl)-thiophen-2-ylmethylamine Hydrochloride]	–	2900	–
C/C(=C\c1cccc(/C=C(\C)C(=O)N=C(N)N)c1)C(=O)N=C(N)N.Cl.Cl [S 2120, reference compound]	<1	–	–
C/C(=C\c1cc(C)ccc1/C=C(\C)C(=O)NC(=N)N)C(=O)N=C(N)N [S 3226, reference compound]	<5	–	–
CC(C)[C@@H](CC[C@@H](C)[C@H]1CC[C@H]2[C@@H]3[C@H](O)C[C@H]4C[C@@H](NCCCNCCCCN)CC[C@]4(C)[C@H]3CC[C@]12C)OS(=O)(=O)O [squalamine]	–	–	time to reach maximum potency [3]: only after approximately one hour

Reference: patent US6737423B2, “Substituted heterocyclo-norbornylamino derivatives, processes for their preparation, their use as medicaments or diagnostics, and medicaments comprising them” (Aventis Pharma Deutschland GmbH, priority 2000, dated 2004)
